Data taken from paper PMC5902452, “In silico optimization of a guava antimicrobial peptide enables combinatorial exploration for peptide design” (Nature Communications, 2018).
≈ marks a conversion by molar mass, not a printed value. Peptide text beside a SMILES is read from it.

How the values were obtained:
[1] = tested on: P. aeruginosa strain PAO1; assay: Scarification skin infection mouse model; format: in vivo, female CD-1 mice
Method: P. aeruginosa strain PAO1 was grown to an optical density at 600 nm (OD600) of 1 in tryptic soy broth medium. Subsequently cells were washed twice with sterile PBS, and resuspended to a final concentration of 5 × 10^7 CFU in 50 μL. To generate skin infection, female CD-1 mice (6 weeks old) were anesthetized with isoflurane and had their backs shaved. A superficial linear skin abrasion was made with a needle in order to damage the stratum corneum and upper layer of the epidermis. Five minutes after wounding, an aliquot of 50 μL containing 5 × 10^7 CFU of bacteria in PBS was inoculated over each defined area containing the scratch with a pipette tip. One day after the infection, peptides were administered to the infected area. Animals were euthanized and the area of scarified skin was excised 2 and 4 days post-infection, homogenized using a bead beater for 20 min (25 Hz), and serially diluted for CFU quantification. Two independent experiments were performed with four mice per group in each case. Statistical significance was assessed using a two-way ANOVA. Animals were maintained in accordance with the Guide for the Care and Use of Laboratory Animals in an AAALAC-accredited facility. All procedures were approved by the MIT’s Institutional Animal Care and Use Committee (IACUC), protocol number 1016-064-19.

erythrocytes = settings: cited from earlier work
E. coli ATCC 25922 [2] = assay: SYTOX green uptake assay (membrane permeabilization); format: cell-based, Escherichia coli; settings: 5 µM, positive control
Method: SG is impermeant to live cells and when the cell membrane is damaged, this dye penetrates into the cell and binds to intracellular DNA, due to its high-affinity to nucleic acids, leading to an increase in fluorescence. Exponentially growing bacteria (6 × 10^5 cfu mL^−1) were resuspended in PBS after centrifugation (1000 × g, 10 min, 4 °C) and washing steps. About 792 μL of the bacterial suspension was pre-incubated with 8 μL of 100 μM SG during 30 min at 37 °C in the dark. […] Results correspond to a representative experiment with negative (PBS) and positive (melittin) controls. Three independent experiments were performed.

E. coli ATCC 25922 [3] = assay: Membrane polarization assay with DiSC3(5); format: cell-based, Escherichia coli; settings: 5 µM, positive control
Method: When the cytoplasmic membrane is intact, the fluorescent probe DiSC3(5) accumulates into the cytoplasmic membrane and then aggregates, causing self-quenching of the fluorescence. In the presence of a membrane-depolarizing agent, DiSC3(5) is released into the medium, leading to an increase in fluorescence that can be monitored over time[59]. Briefly, exponentially growing bacteria were centrifuged (1000 × g, 10 min, 4 °C), washed with PBS, and resuspended in the same buffer to an A630 of 0.1; then 700 µL of bacteria were pre-incubated with 1 µM DiSC3(5) in the dark during 10 min at 37 °C, and then 100 µL of 1 mM KCl were added in order to equilibrate the cytoplasmic and external K^+ concentrations. […] Three independent experiments were performed and results correspond to a representative experiment with negative (PBS) and positive (melittin) controls.

[4] = tested on: P. aeruginosa H1001 (fliC::luxCDABE); format: cell-based, Pseudomonas aeruginosa; settings: SPOT-synthesized unpurified crude peptide (~70% purity); bioluminescent engineered P. aeruginosa; BM2 medium; 4 h, 37 °C; reduction of luminescence; 200 to 3 μg mL−1 tested
Method: A peptide array composed of 20 peptides (15 guavanins, 4 Pg-AMP1 fragments, and magainin 2) was designed and synthesized by Kinexus Bioinformatics Corporation (Vancouver, BC). Peptides were produced in a standard mass of 80 μg by using cellulose support in SPOT technology. The crude synthetic peptides were obtained from cellulose membrane discs that had already been treated with ammonia gas to release the peptides from the membrane. Peptides were then dissolved overnight in distilled water and subsequently evaluated for their biological activities, as described below.
The antimicrobial activity of the synthesized peptides was evaluated against an engineered luminescent P. aeruginosa H1001 (fliC::luxCDABE) strain in 96-well microplates. Aqueous solutions of peptides released from the cellulose spots were diluted twofold in BM2 medium [62 mM potassium phosphate buffer pH 7; 2 mM MgSO4; 10 μM FeSO4; 0.4% (wt/vol) glucose] down the eight wells of a 96-well plate, achieving a final volume of 25 μL in each well. Subsequently, 50 μL of overnight culture of P. aeruginosa H1001 (fliC::luxCDABE) were subcultured in 5 mL of fresh LB media and grown until they reached an OD600 of 0.4. This growing bacteria culture was then diluted 4:100 (v/v) into fresh BM2 media and 25 μL of this diluted bacterial culture was transferred to the microplate wells containing 25 μL of peptide solution. The final peptide concentrations tested ranged from 200 to 3 μg mL^−1. The plates were incubated for 4 h at 37 °C with constant shaking at 50 rpm. Luminescence was measured on a Tecan […]luor Plus Microplate Reader (Tecan US, Morrisville, NC). The antimicrobial activity was evaluated by the ability of the peptides to reduce the luminescence of P. aeruginosa-lux strain compared to untreated cells. The AMP magainin 2 and the carbapenem meropenem were used as positive controls and distilled water was used as a negative control.

human erythrocytes = assay: Hemolytic assay; settings: SPOT-synthesized crude peptides; human red blood cells in NaCl 0.85%, 1 h, 37 °C; hemoglobin release at 546 nm; highest concentration 200 μg mL−1; 100% of hemolysis was not observed
Method: Fresh human venous blood was collected from volunteers in Vacutainer collection tubes containing sodium heparin as an anticoagulant (BD Biosciences, Franklin Lakes, NJ). The blood was centrifuged applying 151 × g force (1500 rpm) and the serum was removed and the blood cells were replaced and washed three times with the same volume of sterile NaCl 0.85% solution. Concentrated red blood cells were diluted tenfold in NaCl 0.85% solution and then exposed at twofold dilutions of peptides for 1 h at 37 °C, at identical concentrations used for antimicrobial assays, in the ratio of 1:1 (v/v), achieving a final volume of 100 μL. The assay was carried out in 96-well polypropylene microtiter plates. The positive control wells contained 1% of Triton X-100, representing 100% cell lysis, and negative control wells contained sterile saline. Hemoglobin release was monitored chromogenically at 546 nm using a microplate reader.

In the case of “Pg-AMP1: guava glycine-rich antimicrobial peptide, UniProt P86030, template of the guavanins (RESPSSRMECYEQAERYGYGGYGGGRYGGGYGSGRGQPVGQGVERSHDDNRNQPR; UniProt P86030 1-55, looked up)”, the anti-infective activity ([1]; 6.25 μg mL−1, 4 days post-infection) is reported as “no activity”, the “effect on CFU counts / bacterial load (two-way ANOVA)” value ([1]; doses 6.25, 25 and 100 µg mL−1, 4 days post-infection, two experiments, four mice per group) is reported as “significant reduction of bacterial load only at higher concentrations” and the “dose at which activity is kept after 4 days” value ([1]; wound infection mouse model) is reported as 25 µg/mL. The hemolytic activity (erythrocytes) was “hemolytic”.
In the case of melittin [reference compound], the “SYTOX Green influx (membrane permeabilization)” value (E. coli ATCC 25922 [2]) is reported as “rapid and maximal SG fluorescence signal” and the “DiSC3(5) fluorescence change (membrane potential)” value (E. coli ATCC 25922 [3]) is reported as “rapid increase in the fluorescence signal”.
In the case of `CC[C@H](C)[C@H](NC(=O)[C@H](C)NC(=O)[C@H](CCC(N)=O)NC(=O)[C@H](CCC(=O)O)NC(=O)[C@H](Cc1ccc(O)cc1)NC(=O)[C@H](CC(C)C)NC(=O)[C@H](CCC(=O)O)NC(=O)[C@H](CCSC)NC(=O)[C@H](CC(C)C)NC(=O)[C@H](CCCCN)NC(=O)[C@@H](N)CCCNC(=N)N)C(=O)N[C@@H](CCCNC(=N)N)C(=O)N[C@@H](Cc1ccc(O)cc1)C(=O)NCC(=O)N[C@@H](CCCCN)C(=O)N[C@@H](CCCNC(=N)N)C(=O)N[C@@H](CO)C(=O)N[C@@H](Cc1ccc(O)cc1)C(=O)N[C@@H](CCCNC(=N)N)C(=O)N[C@@H](CCCNC(=N)N)C(N)=O` [Guavanin 12] (H-RKLMELYEQAIRYGKRSYRR-NH2), the MIC [4] is reported as 25 µg/mL (≈ 9.56 µM) and the Hemolysis (human erythrocytes) is reported as greater than 200 µg/mL.
In the case of `CC(C)C[C@H](NC(=O)[C@H](CCCCN)NC(=O)[C@@H](N)CCCNC(=N)N)C(=O)N[C@H](C(=O)N[C@@H](CCC(=O)O)C(=O)N[C@@H](CS)C(=O)N[C@@H](Cc1ccc(O)cc1)C(=O)N[C@@H](CCC(=O)O)C(=O)N[C@@H](CCCNC(=N)N)C(=O)N[C@@H](C)C(=O)N[C@@H](CCC(=O)O)C(=O)N[C@@H](CCCNC(=N)N)C(=O)N[C@@H](CC(=O)O)C(=O)N[C@@H](C)C(=O)N[C@@H](CC(N)=O)C(=O)N[C@@H](CCCNC(=N)N)C(=O)N[C@@H](CO)C(=O)NCC(=O)N[C@@H](CCCNC(=N)N)C(=O)N[C@@H](CCCNC(=N)N)C(N)=O)C(C)C` [Guavanin 15] (H-RKLVECYERAERDANRSGRR-NH2), the MIC [4] is reported as 200 µg/mL (≈ 81.2 µM) and the Hemolysis (human erythrocytes) is reported as greater than 200 µg/mL.
In the case of `CC[C@H](C)[C@H](NC(=O)[C@H](CO)NC(=O)[C@H](CCC(=O)O)NC(=O)[C@H](Cc1ccc(O)cc1)NC(=O)[C@@H](NC(=O)[C@H](CCC(N)=O)NC(=O)[C@@H](N)CCCNC(=N)N)[C@@H](C)CC)C(=O)N[C@@H](CCC(=O)O)C(=O)N[C@@H](CCC(N)=O)C(=O)N[C@@H](C)C(=O)N[C@@H](CC(C)C)C(=O)N[C@@H](CCCNC(=N)N)C(=O)N[C@@H](CCCNC(=N)N)C(=O)NCC(=O)N[C@@H](Cc1ccc(O)cc1)C(=O)N[C@@H](CCCNC(=N)N)C(=O)N[C@@H](CO)C(=O)N[C@@H](Cc1ccc(O)cc1)C(=O)N[C@@H](CCCNC(=N)N)C(=O)N[C@@H](CCCNC(=N)N)C(N)=O` [Guavanin 7] (H-RQIYESIEQALRRGYRSYRR-NH2), the MIC [4] is reported as 200 µg/mL (≈ 76.9 µM) and the Hemolysis (human erythrocytes) is reported as greater than 200 µg/mL.
With `CSCC[C@H](NC(=O)[C@H](Cc1ccc(O)cc1)NC(=O)[C@H](CCCNC(=N)N)NC(=O)[C@@H](N)CCCNC(=N)N)C(=O)N[C@@H](CCC(=O)O)C(=O)N[C@@H](CS)C(=O)N[C@@H](Cc1ccc(O)cc1)C(=O)N[C@@H](CCC(=O)O)C(=O)N[C@@H](CCC(N)=O)C(=O)N[C@@H](C)C(=O)N[C@@H](CCC(=O)O)C(=O)N[C@@H](CCCNC(=N)N)C(=O)N[C@@H](Cc1ccc(O)cc1)C(=O)N[C@@H](Cc1ccccc1)C(=O)N[C@@H](CCCNC(=N)N)C(=O)N[C@@H](CCCNC(=N)N)C(=O)N[C@@H](Cc1ccccc1)C(=O)NCC(=O)N[C@@H](CCCNC(=N)N)C(=O)N[C@@H](CCCNC(=N)N)C(N)=O` [Guavanin 13] (H-RRYMECYEQAERYFRRFGRR-NH2) the MIC [4] was 25 µg/mL (≈ 9.02 µM) and the Hemolysis (human erythrocytes) was greater than 200 µg/mL.
`CC[C@H](C)[C@H](NC(=O)[C@H](CCCNC(=N)N)NC(=O)[C@H](CCC(=O)O)NC(=O)[C@H](Cc1ccc(O)cc1)NC(=O)[C@H](CCC(N)=O)NC(=O)[C@H](CCCCN)NC(=O)[C@H](CCSC)NC(=O)CNC(=O)[C@H](CCCNC(=N)N)NC(=O)[C@@H](N)CCCNC(=N)N)C(=O)N[C@@H](CO)C(=O)N[C@@H](CCCNC(=N)N)C(=O)N[C@@H](CC(=O)O)C(=O)N[C@@H](C)C(=O)N[C@@H](CC(N)=O)C(=O)N[C@@H](CCCNC(=N)N)C(=O)N[C@@H](CO)C(=O)N[C@@H](Cc1ccc(O)cc1)C(=O)N[C@@H](CCCNC(=N)N)C(=O)N[C@@H](CCCNC(=N)N)C(N)=O` [Guavanin 1] (H-RRGMKQYERISRDANRSYRR-NH2) gave an MIC [4] of 200 µg/mL (≈ 77 µM) and a Hemolysis (human erythrocytes) greater than 200 µg/mL.
Molecule `CSCC[C@H](NC(=O)[C@H](Cc1ccc(O)cc1)NC(=O)[C@H](C)NC(=O)[C@@H](N)CCCNC(=N)N)C(=O)N[C@@H](CCC(=O)O)C(=O)N[C@@H](C)C(=O)N[C@@H](CC(C)C)C(=O)N[C@@H](CCCNC(=N)N)C(=O)N[C@@H](CCC(N)=O)C(=O)N[C@@H](C)C(=O)N[C@@H](CCC(=O)O)C(=O)N[C@@H](CCCNC(=N)N)C(=O)N[C@@H](CC(C)C)C(=O)NCC(=O)N[C@@H](CC(N)=O)C(=O)N[C@@H](CCCNC(=N)N)C(=O)N[C@H](C(=O)N[C@@H](C)C(=O)N[C@@H](CCCNC(=N)N)C(=O)N[C@@H](CCCNC(=N)N)C(N)=O)[C@@H](C)O` [Guavanin 9] (H-RAYMEALRQAERLGNRTARR-NH2) has an MIC [4] greater than 200 µg/mL and a Hemolysis (human erythrocytes) greater than 200 µg/mL.
`CC[C@H](C)[C@H](NC(=O)CNC(=O)[C@H](CCCNC(=N)N)NC(=O)[C@H](CC(N)=O)NC(=O)[C@H](Cc1ccccc1)NC(=O)[C@H](CO)NC(=O)[C@H](CCCNC(=N)N)NC(=O)[C@H](CO)NC(=O)[C@H](C)NC(=O)[C@H](CCC(N)=O)NC(=O)[C@H](CCCCN)NC(=O)[C@H](Cc1ccc(O)cc1)NC(=O)[C@H](CC(C)C)NC(=O)[C@H](CCC(=O)O)NC(=O)[C@H](CCSC)NC(=O)[C@@H](NC(=O)[C@H](CO)NC(=O)[C@@H](N)CCCNC(=N)N)[C@@H](C)CC)C(=O)N[C@@H](CCCNC(=N)N)C(=O)N[C@@H](CCCNC(=N)N)C(N)=O` [Guavanin 6] (H-RSIMELYKQASRSFNRGIRR-NH2) gave an MIC [4] of 100 µg/mL (≈ 40.5 µM) and a Hemolysis (human erythrocytes) greater than 200 µg/mL.
